These results are taken from ChEMBL document CHEMBL1143878, “The design and synthesis of novel alpha-ketoamide-based p38 MAP kinase inhibitors” (Bioorg Med Chem Lett, 2008).

The structures appear in SMILES notation.

One data set concerns THP-1. Nature of the data set: Inhibition of LPS-induced TNFalpha production in human THP1 cells. The data set is classed as functional, cell-based.
The target in data set [1] is T1, Mitogen-activated protein kinase 14 (Homo sapiens, UniProt Q16539). Kind of data set: Inhibition of human p38-alpha kinase phosphorylation.
Data set [2] has as its target T1, Mitogen-activated protein kinase 14. Nature of the data set: Inhibition of human p38-alpha kinase.
The nature of data set [3]: Tmax in rat at 30 mg/kg, po. More on the design: dose 30 mg/kg, route oral. The data set is classed as ADME, organism-based. To be noted: in vivo.
A short description of data set [4]: Cmax in rat at 30 mg/kg, po. The data set is classed as ADME, organism-based. More on the design: dose 30 mg/kg, route oral. Particulars: in vivo.
The nature of data set [5]: Half life in rat at 30 mg/kg, po. The data set is classed as ADME, organism-based. Details: dose 30 mg/kg, route oral. To be noted: in vivo.
Data set [6] can be described thus: AUC in rat at 30 mg/kg, po. Particulars: plasma. More on the design: dose 30 mg/kg, route oral. The data set is classed as ADME, organism-based.
Data set [7] can be described thus: Bioavailability in rat at 30 mg/kg, po. To be noted: in vivo. The data set is classed as ADME, organism-based.
The nature of data set [8]: Clearance in rat at 10 mg/kg, iv. The data set is classed as ADME, organism-based. More on the design: dose 10 mg/kg, route intravenous. To be noted: in vivo.
The nature of data set [9]: Volume of distribution at steady state in rat at 10 mg/kg, iv. The data set is classed as ADME, organism-based. Particulars: in vivo, read-out: Vdss. More on the design: dose 10 mg/kg, route intravenous.

T1 sequence (Q16539 whole entry): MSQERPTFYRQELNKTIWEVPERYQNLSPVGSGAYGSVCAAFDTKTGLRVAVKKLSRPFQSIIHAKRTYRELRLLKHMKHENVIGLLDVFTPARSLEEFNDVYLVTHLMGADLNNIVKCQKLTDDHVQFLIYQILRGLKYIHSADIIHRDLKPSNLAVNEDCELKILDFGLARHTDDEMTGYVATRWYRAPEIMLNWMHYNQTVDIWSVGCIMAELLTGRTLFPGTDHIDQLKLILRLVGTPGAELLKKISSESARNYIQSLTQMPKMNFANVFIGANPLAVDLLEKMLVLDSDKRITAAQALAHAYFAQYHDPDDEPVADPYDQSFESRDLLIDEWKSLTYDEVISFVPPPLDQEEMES

The compound `Cc1ccc(-n2nc(C(C)(C)C)cc2NC(=O)C(=O)c2ccc(OCCN3CCOCC3)c3ccc(Cl)cc23)cc1` gave an IC50 with THP-1 of 2600 nM.
In the data set on THP-1, `Cc1ccc(-n2nc(C(C)(C)C)cc2NC(=O)C(=O)c2ccc(OCCN3CCOCC3)c3ccccc23)cc1F` showed an IC50 of 220 nM.
On the same count and under the same terms, the same measure for `CC(C)(C)c1cc(NC(=O)C(=O)c2ccc(OCCN3CCOCC3)c3ccccc23)n(-c2cccc(F)c2)n1`: 440 nM; for `CC(C)(C)c1cc(NC(=O)C(=O)c2ccc(OCCN3CCOCC3)c3ccccc23)n(-c2ccccc2)n1`: 2100 nM.
The same measure, in the same setting: to `O=c1ncn2nc(Sc3ccc(F)cc3F)ccc2c1-c1c(Cl)cccc1Cl` [NEFLAMAPIMOD] belongs 39 nM.
Regarding `Cc1ccc(-n2nc(C(C)(C)C)cc2NC(=O)C(=O)c2ccc(OCCN3CCOCC3)c3ccccc23)cc1`, the IC50 in data set [1] was 310 nM; in data set [2] it was 320 nM; in the data set on THP-1 it was 440 nM.
Regarding `Cc1ccc(-n2nc(C(C)(C)C)cc2NC(=O)c2n[nH]c3ccccc23)cc1`, in the data set with THP-1, the IC50 came out at 2900 nM.
For `CO/N=C(\C(=O)Nc1cc(C(C)(C)C)nn1-c1ccc(C)cc1)c1ccc(OCCN2CCOCC2)c2ccccc12`, the IC50 in the data set on THP-1 is 1500 nM.
On the same count and under the same terms, the same measure for `Cc1cccc(-n2nc(C(C)(C)C)cc2NC(=O)C(=O)c2ccc(OCCN3CCOCC3)c3ccccc23)c1`: 340 nM.
For `Cc1ccccc1-n1nc(C(C)(C)C)cc1NC(=O)C(=O)c1ccc(OCCN2CCOCC2)c2ccccc12`, the IC50 in the data set with THP-1 was found to be 1500 nM.
Still for that read-out and setting: the same measure for `Cc1ccc(-n2nc(C(C)(C)C)cc2NC(=O)C(=O)c2ccc(OCCN3CCOCC3)c3ccccc23)cc1C`: 450 nM; for `CC(C)(C)c1cc(NC(=O)C(=O)c2ccc(OCCN3CCOCC3)c3ccccc23)[nH]n1`: 1500 nM.
As for `Cc1ccc(-n2nc(C(C)(C)C)cc2NC(=O)/C(=N\O)c2ccc(OCCN3CCOCC3)c3ccccc23)cc1`, the Tmax in [3] stood at 1 h. The results for the IC50 (in data set [1]; in [2]; in the data set with THP-1) were 150 nM, 23 nM and 23 nM, respectively. Also, the concentration in [4] peaked (Cmax) at 4500 ng/mL. In addition, the half-life in data set [5] was 1.4 h. Also, the AUC in data set [6] came to 36000 ng·h/mL. The compound also yielded a bioavailability in data set [7] of 100%. The clearance in data set [8] was 15 mL/min/kg. Also, in data set [9], the Vd turned out to be 1.9 L/kg.
With `Cc1ccc(-n2nc(C(C)(C)C)cc2NC(=O)Cc2ccc(OCCN3CCOCC3)c3ccccc23)cc1`, in the data set with THP-1, the IC50 was determined as 1400 nM.
Turning to `Cn1nc(C(C)(C)C)cc1NC(=O)C(=O)c1ccc(OCCN2CCOCC2)c2ccccc12`, the IC50 in data set [1] came to 300 nM; in [2] it was 150 nM.
In the data set with THP-1, `C[S+]([O-])c1ccc(-c2nc(-c3ccc(F)cc3)c(-c3ccncc3)[nH]2)cc1` (stereo not given) [SB-203580] showed an IC50 of 16 nM.
On the same count and under the same terms, the same measure for `Cc1ccc(-n2nc(C(C)(C)C)cc2NC(=O)C(O)c2ccc(OCCN3CCOCC3)c3ccccc23)cc1` (stereo not given): 970 nM; for `Cc1ccc(-n2nc(C(C)(C)C)cc2NC(=O)Nc2ccc(OCCN3CCOCC3)c3ccccc23)cc1` [DORAMAPIMOD]: 13 nM.
